# Reference: patent publication US20060052582A1, “Identification of inhibitors of mitosis” (priority 2002, published 2006)
# Assays:
# [1] = system: BHK cells; test: Leptomycin B treatment, Nercc localization in transfected BHK cells; assay type: cell-based, hamster
# Protocol: (§1) Cells grown on coverslips were rinsed with PBS, fixed in methanol at −20° C. for 15 min, rinsed twice with PBS and incubated for 30 min at room temperature with the appropriate dilution of primary antibody in PBS. To visualize endogenous Nercc, affinity purified anti-Nercc peptide antibodies (N1 and C1) were employed at 10 μg/ml. Microtubules were visualized with a α/β-tubulin specific antibody. Coverslips were washed with PBS, and incubated with labeled secondary antibodies from corresponding species in appropriate combination-fluorescein or rhodamine X-conjugated donkey anti-rabbit, Cy2 or rhodamine X-conjugated donkey anti-mouse (each at 1:450). Incubation was terminated with a rinse in PBS, and the coverslips were mounted on a microscope slide. For immunodetection blocking, Nercc1 C1- or N1-antibody was incubated for 30 min at 37° C. with a 15-fold molar excess of immunizing peptide. After centrifugation at 12,000× g for 10 min, the mixture was used for immunoblotting or immunocytochemistry, as indicated. To examine the effects of Leptomycin B treatment on Nercc localization, HeLa or BHK21 cells were grown to subconfluency on 25 mm round glass coverslips in DMEM supplemented with 10% fetal bovine serum and penicillin-streptomycin. BHK21 cells were transfected (Fugene, Roche Molecular Biochemicals) with the wild type FLAG Nercc; medium was replaced after 18 hours (h). […]
# [2] = system: HeLa cells; test: Leptomycin B treatment, endogenous Nercc localization in HeLa cells; assay type: cell-based, human
# Protocol: as §1
# [3] = system: p70S6K; test: Activity of endogenous p70S6K immunoprecipitated from H4-II-E-C3 hepatoma cells; assay type: cell-based, rat; conditions: for IC50: insulin-stimulated H4 cells, insulin plus increasing inhibitor concentrations for 30 minutes, read-out: IC50 for inhibition of p70S6K activity
# Protocol: (§2) Endogenous Nek6 polypeptide was immunoprecipitated from lysates of rat H4-II-E-C3 hepatoma cells following prior treatment for varying times (min) with 100 nM insulin (FIG. 12B), or insulin plus increasing concentrations of either wortmannin (FIG. 12C) or rapamycin (FIG. 12D) for 30 minutes. Nek6 kinase activity was measured using GST p70S6K ΔCT104 (Thr252Ala) as substrate (see, text for details). The activity of endogenous p70S6K αI/II, immunoprecipitated from the same lysates, was measured using a synthetic peptide substrate. Kinase activities are expressed as either fold increase in baseline activity (as in FIG. 12B; open circles show Nek6 activity; filled squares show p70S6K activity) or as histograms depicting the percent activity remaining for Nek6 (filled bars) or p70S6K (open bars) (as in FIGS. 12C and 12D).
# The regulation of endogenous Nek6 activity in vivo was examined. An affinity purified anti-Nek6 peptide antibody raised against a polypeptide comprising an amino terminal murine Nek6 peptide AGQPSHMPHGGSPN (SEQ ID NO:30) conjugated to KLH via a cysteine residue as described above, gave highly specific immunoblots and was capable of modest immunoprecipitation of the endogenous Nek6 polypeptide, although at very low efficiency. Thus far, useful antibodies reactive with endogenous Nek7 have not been obtained. Nek6 immunoreactivity was evident in several commonly used mammalian cell lines including COS7 cells (FIG. 12A). […] Moreover, Nek6 had been isolated as a candidate p70S6 Kinase-Thr412 kinase, and insulin regulation of endogenous p70S6 Kinase (also referred to as p70S6K) had previously been characterized in this cell line (see, Price et al., Proc. Natl. Acad. Sci. USA, 87: 7944-7948 (1990)). Insulin generated a rapid, fifteen-fold activation of endogenous p70S6Kinase in serum-deprived H4 cells; under these conditions, however, no change occurred in the basal activity of immunoprecipitated endogenous Nek6 (FIG. 12B). […] The specific activity of Nek6 in H4 cells is, however, sensitive to serum withdrawal and declines progressively by 80% over 48 hours (FIG. 12E). […]
# [4] = system: Nek6; test: Nek6 kinase assay in vitro with p70S6K ΔCT104 as substrate; assay type: biochemical, human
# Protocol: Transiently expressed FLAG Nek6 was incubated for 1 hour at 4° C. alone or with increasing quantities of either purified prokaryotic recombinant GST (lanes 6-8) or prokaryotic recombinant GST Nercc1 (732-979) (lanes 2-5). Nek6 activity was assayed using p70S6K ΔCT104 as substrate. Upper panel: mean±S.E.M. percent of control Nek6 activity. Lower panels: ^32P autoradiography, Coomassie stain of the GST Nercc1 (732-979) or GST proteins, and western blot of the FLAG Nek6 wild type.
# Immunoprecipitates (IP) of recombinant Nek6 (using anti-FLAG or anti-myc antibodies) or endogenous Nek6 were washed three times in the extraction buffer containing 0.5 M LiCl, and twice in kinase buffer (50 mM MOPS pH 7.4, 10 mM MgCl2, 2 mM EGTA, 20 mM β-glycerophosphate). Kinase assays were performed in 30 μl kinase buffer containing 1.5 μg GST-p70S6K ΔCT104 (Thr252Ala) or MBP (0.2 mg/ml) and initiated by addition of [γ-^32P] ATP (5 μM final concentration at 4000 cpm/pmol). Reactions were incubated for 10 minutes at 30° C. and terminated by the addition of 4×SDS sample buffer. Kinase mixtures were resolved by SDS-PAGE, transferred to PVDF membrane, and Nek6 phosphotransferase activity determined by excising Coomassie stained bands corresponding to the substrate and measuring radioactive content by Cerenkov scintillation counting.
# [5] = system: Nek6; test: Activity of endogenous Nek6 immunoprecipitated from H4-II-E-C3 hepatoma cells; assay type: cell-based, rat; conditions: serum-deprived H4 cells; 100 nM insulin
# Protocol: as §2
# Immunoprecipitates (IP) of recombinant Nek6 (using anti-FLAG or anti-myc antibodies) or endogenous Nek6 were washed three times in the extraction buffer containing 0.5 M LiCl, and twice in kinase buffer (50 mM MOPS pH 7.4, 10 mM MgCl2, 2 mM EGTA, 20 mM β-glycerophosphate). […] Kinase mixtures were resolved by SDS-PAGE, transferred to PVDF membrane, and Nek6 phosphotransferase activity determined by excising Coomassie stained bands corresponding to the substrate and measuring radioactive content by Cerenkov scintillation counting. […]
# Sequence of Nek6 (Q9HC98 whole entry): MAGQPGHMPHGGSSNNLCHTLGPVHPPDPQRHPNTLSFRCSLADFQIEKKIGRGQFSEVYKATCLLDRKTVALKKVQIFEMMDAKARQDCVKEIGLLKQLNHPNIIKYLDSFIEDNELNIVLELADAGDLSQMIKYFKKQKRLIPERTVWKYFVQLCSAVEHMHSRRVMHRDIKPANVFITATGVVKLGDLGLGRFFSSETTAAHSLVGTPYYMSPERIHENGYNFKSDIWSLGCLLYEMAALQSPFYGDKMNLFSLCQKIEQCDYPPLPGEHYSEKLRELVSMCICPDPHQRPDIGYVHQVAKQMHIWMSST
molecule,measurement,setting,value
CCC(=C/[C@H](C)C/C=C/C(C)=C/[C@@H](C)C(=O)[C@@H](C)[C@H](O)[C@@H](C)C/C(C)=C/C(=O)O)/C=C/[C@@H]1OC(=O)C=C[C@@H]1C [Leptomycin B],endogenous RanBP1 fluorescence in the nucleus,"[1]; 20 nM, 30 minutes incubation",increased dramatically
same,localization of wild type Nercc,"[1]; 2, 20 and 200 nM, 30 minutes to 24 hours",remained cytoplasmic
same,response of endogenous Nercc localization,[2],lack of response
COC[C@H]1OC(=O)c2coc3c2[C@@]1(C)C1=C(C3=O)[C@@H]2CCC(=O)[C@@]2(C)C[C@H]1OC(C)=O [wortmannin],IC50,[3],~30 nM
CO[C@H]1C[C@@H]2CC[C@@H](C)[C@@](O)(O2)C(=O)C(=O)N2CCCC[C@H]2C(=O)O[C@H]([C@H](C)C[C@@H]2CC[C@@H](O)[C@H](OC)C2)CC(=O)[C@H](C)/C=C(\C)[C@@H](O)[C@@H](OC)C(=O)[C@H](C)C[C@H](C)/C=C/C=C/C=C/1C [rapamycin],IC50,[3],~2 nM
GST Nercc1 (732-979): fusion protein of GST linked to Nercc amino acids 732-979 of SEQ ID NO:2,mode of inhibition of Nek6 catalytic activity,[4],noncompetitive
same,effect on enzymatic activity of preactivated wild type Nek6,[4]; concentrations far below those of p70S6K ΔCT104 substrate,substantial inhibition
"Insulin: insulin, used at 100 nM to stimulate H4 cells",activation of endogenous p70S6Kinase,"[3]; serum-deprived H4 cells, 100 nM insulin",fifteen-fold
same,change in basal activity of immunoprecipitated endogenous Nek6,[5],no change
